The conditions of data set [1]: improper dose or route of administration; cited from earlier work.
For data set [2], the system named is rabbits. The settings on record: rabbit. As to the method:
(§1) A hydrous crystalline trehalose prepared by the method in Experiment 1-2 was dissolved in a refined water, and the resultant solution was membrane filtered, concentrated and recrystallized to obtain a pyrogen-free hydrous crystalline trehalose. The crystal thus obtained was dissolved in injectable distilled water into a 10 w/v % solution isotonic to rabbit blood as trehalose infusion. By using 6 rabbits, about 2-3 kg weight, the infusion was rapidly administered to their ear veins at a dose of one g/kg body weight within 1.5 min, followed by collecting their blood at a prescribed time interval, and subjecting the collected blood samples to the measurements of their sugar levels (glucose concentration (mg/dl)) and insulin levels (μU/ml). As a control, 5 w/v % glucose solution isotonic to rabbit blood was similarly administered to rabbit veins at a dose of 0.5 g/kg body weight. Each result was expressed by the mean value of the 6 rabbits, and the time courses of the blood sugar- and insulin-levels of the rabbits were respectively shown in FIGS. 3 and 4. In the figures, the solid- and dashed-lines mean the time courses of trehalose and insulin in rabbit blood, respectively.

In data set [3] the test system is rabbits. The settings on record: rabbit; for amount secreted in urine (in words): in vivo.
Data set [4] is described as follows: Isotonicity to rabbit blood. It is filed as physicochemical. As to the method: as §1
Data set [5] can be described thus: Digestion test in vitro (enzyme derived from rat small intestinal mucous membrane). It is filed as in vitro ADME. The following applies: small intestinal mucosa enzyme, Tables 4 and 5, rat small intestinal enzyme, read-out: Decomposition rate. On the procedure: (§2) By using a trehalose solution of a high-purity hydrous crystalline trehalose prepared by the method in Experiment 1-2, a digestion test of trehalose was carried out in vitro in accordance with the method as reported by K. Okada et al. in JOURNAL OF JAPANESE SOCIETY OF NUTRITION AND FOOD SCIENCE, Vol.43, No.1, pp.23-29 (1990). The digestibility of trehalose was evaluated based on the decomposition rate (%) calculated by the following equation: [formula]
As evident from the results in Table 4, trehalose was not substantially hydrolyzed by the enzyme derived from rat small intestinal mucous membrane. By using the rat enzyme, disaccharides were tested for their digestibility similarly as above.

Data set [6] in a line: Digestion test in vitro (salivary amylase). It is filed as in vitro ADME. The following applies: Table 4, salivary amylase, read-out: Decomposition rate. On the procedure:
as §2

Data set [7] in a line: Digestion test in vitro (gastric acid). It is filed as in vitro ADME. The following applies: Table 4, gastric acid, read-out: Decomposition rate. On the procedure:
as §2

A short description of data set [8]: Digestion test in vitro (pancreatic amylase). It is filed as in vitro ADME. The settings on record: Table 4, pancreatic amylase, read-out: Decomposition rate. As to the method: as §2
In data set [9] the test system is human volunteers. The data set can be described thus: Utilization test in vivo by oral administration (blood sugar and insulin levels). As to the method:
In accordance with the method reported by H. Atsuji et al. in Journal of Clinical Nutrition, Vol.41, No.2, pp.200-208 (1972), 30 g of a hydrous crystalline trehalose prepared by the method in Experiment 1-2 was dissolved in water into a 20 w/v % aqueous trehalose solution, and prescribed amounts of which were orally administered to 6 male volunteers, 26-31-year-old. The volunteers were let blood at a prescribed time interval, and each blood sample was measured its blood sugar level, i.e. glucose concentration (mg/dl) and insulin level (μU/ml). As a control, glucose was used. The results of both levels were the mean values of 6 volunteers. FIGS. 1 and 2 show the time courses of blood sugar- and insulin-levels, respectively. In the figures, the solid- and dashed-lines mean the time courses of trehalose and insulin, respectively.

Data set [10] can be described thus: Acute toxicity test. It is filed as in vivo. The following applies: mouse, in vivo; oral, mice; "the value was not so accurate". As to the method: (§3) By using mice, trehalose was tested for its acute toxicity by orally administering it to the mice a hydrous crystalline trehalose prepared by the method in Experiment 1-2. […] Based on the result, the LD50 was 50 g/kg or higher, though the value was not so accurate.

The test system of data set [11] is mice. The data set is described as follows: Acute toxicity test. The settings on record: oral. It is filed as in vivo. On the procedure: as §3
Data set [12] relates to living bodies. The settings on record: prior art; cited from earlier work.
The test system of data set [13] is amylases. The settings on record: Japanese Patent Laid-Open No. 240,758/88; cited from earlier work.
For data set [14] the following is noted: cited from earlier work.
[15] abbreviates: 20 w/v % aqueous solution, 6 male volunteers, mean.

The values that follow come from patent US5576303A, “Energy-supplementing saccharide source and its uses” (priority 1993, dated 1996).

Read-outs that look alike come from different tables or passages of the source.

`OC[C@@H](O)[C@@H](O)[C@H](O)[C@@H](O)CO` [sorbitol]: the diarrhea entry in [1] is recorded as “may cause serious diarrhea”.

`O=C[C@H](O)[C@@H](O)[C@H](O)[C@H](O)CO` [glucose, reference compound]: the “amount secreted in urine (in words)” value in data set [2] (in vivo) and in data set [3] was “absolutely low” throughout. Further, the “concentration isotonic to rabbit blood” value in data set [4] was found to be 5 w/v %.

On to `OC[C@H]1O[C@@H](O[C@H]2[C@H](O)[C@@H](O)C(O)O[C@@H]2CO)[C@H](O)[C@@H](O)[C@H]1O` (some centres unmarked) [Lactose], for which the metabolised in data set [5] came to 9.7%.

Turning to `OC[C@H]1O[C@@H](O[C@H]2[C@H](O)[C@@H](O)C(O)O[C@@H]2CO)[C@H](O)[C@@H](O)[C@@H]1O` (some centres unmarked) [Cellobiose], the metabolised in data set [5] was found to be 1.2%.

A word on the LD50: it is the dose at which mortality reaches 50%. Read a low LD50 as greater toxicity. In the case of `OC[C@H]1O[C@H](O[C@H]2O[C@H](CO)[C@@H](O)[C@H](O)[C@H]2O)[C@H](O)[C@@H](O)[C@@H]1O` [trehalose, O-α-D-glucopyranosyl α-D-glucopyranoside], the metabolised turned out to be 0% in [6], 0% in data set [8] and 1.3% in data set [5]. Moreover, the degraded in [7] turned out to be 0%. Besides, the “assimilation, metabolism and utilization” value in data set [9] is “readily assimilated, metabolized and utilized by living bodies as energy source”. Also, the “time of maximum of blood sugar level after administration” value in data set [9] (setting [15]) lay within 30 to 45 min. Also, the “time of maximum of insulin level after administration” value in data set [9] (setting [15]) was 30 to 45 min. The “dynamics of blood sugar- and insulin-levels against glucose” value is given as “tended to show a time lag” in [9] (FIGS. 1 and 2); “tended to show a time lag” in data set [2] (in vivo). Besides, the “hydrolysis, metabolism and utilization in vivo” value was “readily hydrolyzed into glucose in vivo, metabolized and utilized by living bodies as energy source” in data set [2]; “readily hydrolyzed into glucose in vivo, metabolized and utilized by the living bodies as energy source” in data set [3]. Further, the “amount secreted in urine (in words)” value in data set [2] (in vivo) and in data set [3] was “absolutely low” in each case. Moreover, the LD50 in data set [10] is ≥ 50000 mg/kg. Moreover, in data set [11], the “toxicity (in words)” value is on record as “relatively-low toxicity”. Moreover, the mortality result in [11] (highest possible dose) is recorded as “no mouse died”. In data set [4], the “concentration isotonic to rabbit blood” value worked out at 10 w/v %. Besides, the “metabolism and utilization by living bodies” value in data set [12] is “not substantially assimilated and utilized by the body”. Moreover, the hydrolysis by amylases entry in data set [13] is “not substantially hydrolyzed by amylases”.

Turning to `OC[C@H]1O[C@H](OC[C@H]2OC(O)[C@H](O)[C@@H](O)[C@@H]2O)[C@H](O)[C@@H](O)[C@@H]1O` (some centres unmarked) [Isomaltose], the metabolised in data set [5] came out at 13.2%.

With `OC[C@H]1O[C@H](O[C@H]2[C@H](O)[C@@H](O)[C@H](O)O[C@@H]2CO)[C@H](O)[C@@H](O)[C@@H]1O` (mixture of isomers) [Maltose], the metabolised in data set [5] stood at 80.1%.

Regarding `OC[C@@H](O)[C@@H](O[C@H]1O[C@H](CO)[C@@H](O)[C@H](O)[C@H]1O)[C@H](O)[C@@H](O)CO` [maltitol], the “metabolism and utilization by living bodies” value in data set [12] is “not readily metabolized and utilized by living bodies”.

Regarding `OC[C@@H](O)[C@H](O)[C@@H](O)CO` [xylitol], the diarrhea result in data set [1] is reported as “may cause serious diarrhea”.

As to `OC[C@@H](O)[C@@H](O[C@@H]1O[C@H](CO)[C@H](O)[C@H](O)[C@H]1O)[C@H](O)[C@@H](O)CO` [lactitol], the “metabolism and utilization by living bodies” value in [12] is “not readily metabolized and utilized by living bodies”.

For the compound `OC[C@H]1O[C@@](CO)(O[C@H]2O[C@H](CO)[C@@H](O)[C@H](O)[C@H]2O)[C@@H](O)[C@@H]1O` [Sucrose], in data set [5], the metabolised was 25.1%. Besides, in data set [14], the “hydrolysis under acidic conditions” value is “readily hydrolyzed”.
